Data published in a polymer gas permeability compilation.

Compound | CH4 permeability [Barrer] | CO2 permeability [Barrer] | H2 permeability [Barrer] | N2 permeability [Barrer] | O2 permeability [Barrer]
*C1C2CC(CF)C(C2)C1* (repeat unit) | 13 | 200 | 166 | 17 | 50
*Oc1ccc(Oc2ccc(C(=O)c3ccc(*)cc3)cc2)cc1 (repeat unit) | 0.0311 | 0.963 |  | 0.0398 | 0.259
*[Si](C)(C)CCCCCCCC[Si](*)(C)C (repeat unit) |  |  |  | 76.2 | 188
*Oc1c(C)cc(-c2cc(C)c(Oc3ccc(S(=O)(=O)c4ccc(*)cc4)cc3)c(C)c2)cc1C (repeat unit) | 0.925 | 18.6 | 11.1 | 0.91 | 4.55
*OC(=O)Oc1c(C)cc(C(C)(C)c2cc(C)c(*)c(C)c2)cc1C (repeat unit) | 0.955 | 19.6 |  | 1.07 | 5.54
*Oc1ccc(C(C)(C)c2ccc(Oc3ccc(C(=O)c4ccc(C(=O)c5ccc(*)cc5)cc4)cc3)cc2)cc1 (repeat unit) | 0.084 | 2.19 | 9.07 | 0.087 | 0.604
*Oc1ccc(S(=O)(=O)c2ccc(Oc3ccc(-c4ccc(*)cc4)cc3)cc2)cc1 (repeat unit) | 0.255 | 5.6 |  | 0.236 | 1.3
*C(=C(*)c1ccc2c(c1)C(C)(C)c1ccccc1-2)c1cccc(F)c1 (repeat unit) | 11000 | 18000 | 9900 | 4200 | 5900
*C(C(=O)OC1CCCCC1)C(*)C(=O)OC(C)(C)C (repeat unit) |  |  | 72 | 5 | 17
*Oc1c(C)cc(C(C)(C)c2ccc(C(C)(C)c3cc(C)c(Oc4ccc(S(=O)(=O)c5ccc(*)cc5)cc4)c(C)c3)cc2)cc1C (repeat unit) | 0.6 | 13.2 |  | 0.571 | 3.2
*CC(*)C(=O)OCC (repeat unit) | 14.9 | 176 | 60.4 | 6.46 | 19
*CC(C)C(=O)OC(C)C(*)=O (repeat unit) | 1 | 0.905 |  | 0.04 | 0.26
*Oc1ccc(C2(c3ccc(OC(=O)c4cccc(C(*)=O)c4)cc3)c3ccccc3-c3ccccc32)cc1 (repeat unit) | 0.71 | 20.1 |  | 0.64 | 3.92
*C(C)=C(*)CCCCC (repeat unit) | 51 | 200 | 150 | 21 | 57
*Oc1ccc(C(C)(C)c2ccc(OC(=O)c3ccc(C(*)=O)cc3)cc2)cc1 (repeat unit) | 0.678 | 11.6 |  | 0.625 | 2.5
*[Si](C)(C)c1cccc([Si](*)(C)C)c1 (repeat unit) |  |  |  | 31.9 | 75.6
*Oc1c(C)cc(*)c(C(=O)c2ccccc2)c1C (repeat unit) | 0.95 | 14.3 |  | 1.59 | 6
*OC1OC(OC(C)=O)C(*)C(OC(C)=O)C1OC(C)=O (repeat unit) | 0.2 | 6.56 | 15.5 | 0.23 | 1.46
*c1c(C)cc(-c2cc(C)c(-n3c(=O)c4cc5oc6cc7c(cc6oc5cc4c3=O)C3(C)CCC7(C)c4cc5oc6cc7c(=O)n(*)c(=O)c7cc6oc5cc43)c3ccccc23)c2ccccc12 (repeat unit) | 180 | 3000 | 2490 | 141 | 583
*Nc1ccc(*)cc1OC (repeat unit) |  | 1.06 | 6.04 | 0.047 | 0.202
*Oc1ccc(C(C)(C)c2ccc(Oc3ccc(S(=O)(=O)c4ccc(*)cc4)cc3)c(C)c2)cc1C (repeat unit) | 0.07 | 2.1 | 11 | 0.091 | 0.64
*/C(C)=C(/*)[Si](C)(C)CCC (repeat unit) | 44 | 230 | 250 | 21 | 70
*Oc1ccc(C(C)(C)c2ccc(OC(=O)c3ccc(C(=O)Oc4cc(-c5cc(*)cc6ccccc56)c5ccccc5c4)cc3)cc2)cc1 (repeat unit) | 0.471 | 9.9 |  | 0.364 | 2.04
*Oc1ccc(C(=O)c2ccccc2-c2ccccc2C(=O)c2ccc(Oc3c(C)cc(-c4cc(C)c(*)c(C)c4)cc3C)cc2)cc1 (repeat unit) | 0.264 | 6.96 |  | 0.291 | 1.86
*Nc1ccc(S(=O)(=O)c2ccc(NC(=O)c3cccc(C(*)=O)c3)cc2)cc1 (repeat unit) | 0.014 | 0.78 | 4.3 | 0.031 | 0.19
*CC(*)(C)C(=O)OCC (repeat unit) | 0.347 | 6.03 | 21.8 | 0.276 | 1.52
*C(=C(*)c1ccc(O[Si](C)(C)C(C)(C)C)cc1)c1ccc(F)cc1 (repeat unit) | 140 | 800 | 315 | 55 | 140
*CC1CC(C*)C2C1C([Si](O[Si](C)(C)C)(O[Si](C)(C)C)O[Si](C)(C)C)C2[Si](O[Si](C)(C)C)(O[Si](C)(C)C)O[Si](C)(C)C (repeat unit) | 215 | 840 | 460 | 75 | 220
*CC(*)c1ccc(C)cc1 (repeat unit) | 2.2 | 29.8 |  | 1.5 | 7.2
*CC(*)OCc1ccccc1 (repeat unit) |  | 11.1 |  | 0.79 | 2.33

More lines, now with the values ahead:

CH4 permeability [Barrer] | CO2 permeability [Barrer] | H2 permeability [Barrer] | N2 permeability [Barrer] | O2 permeability [Barrer] | Compound
5.6 | 95 | 150 | 4.9 | 22 | *c1c(C)cc(-c2cc(C)c(N3C(=O)c4ccc(Oc5cc(C(C)(C)C)c(Oc6ccc7c(c6)C(=O)N(*)C7=O)cc5C(C)(C)C)cc4C3=O)c(C)c2)cc1C (repeat unit)
 | 0.598 | 3.75 | 0.016 | 0.149 | *c1cccc(N2C(=O)c3ccc(Oc4ccc(Oc5ccc6c(c5)C(=O)N(*)C6=O)cc4)cc3C2=O)c1 (repeat unit)
0.911 | 54 |  | 2.58 | 15.2 | *C(=O)c1ccc(C(c2ccc3c(c2)C(=O)n2c-3nc3cc4nc(*)n(*)c4cc32)(C(F)(F)F)C(F)(F)F)cc1* (repeat unit)
1.8 | 35.7 | 55 | 1.99 | 8.4 | *Oc1ccc(-c2ccc(C3CCC(Oc4ccc(C5(c6ccc(*)cc6)c6ccccc6-c6ccccc65)cc4)C(C(F)(F)F)C3)s2)cc1C(F)(F)F (repeat unit)
 |  | 4.03 | 0.02 | 0.211 | *c1ccc(Cc2ccc(N3C(=O)c4ccc(C(=O)c5ccc6c(c5)C(=O)N(*)C6=O)cc4C3=O)cc2)cc1 (repeat unit)
0.55 | 12 |  | 0.67 | 3.4 | *Oc1ccc(C(c2ccc(Oc3ccc(S(=O)(=O)c4ccc(*)cc4)cc3)cc2)(C(F)(F)F)C(F)(F)F)cc1 (repeat unit)
0.018 | 0.921 | 3.5 | 0.0215 | 0.174 | *c1ccc(Oc2ccc(N3C(=O)c4ccc(-c5ccc6c(c5)C(=O)N(*)C6=O)cc4C3=O)cc2)cc1 (repeat unit)
0.32 | 8.12 |  | 0.278 | 1.56 | *Oc1ccc(S(=O)(=O)c2ccc(Oc3ccc(C(C)(c4ccccc4)c4ccc(*)cc4)cc3)cc2)cc1 (repeat unit)
129 | 1520 | 624 | 65 | 208 | *c1ccc2c(c1)C1(CC2(C)C)CC(C)(C)c2ccc(N3C(=O)c4cc5c(cc4C3=O)C3(CC(C)(C)c4cc6c(cc43)C(=O)N(*)C6=O)CC5(C)C)cc21 (repeat unit)
 | 4.2 | 11 | 0.15 | 0.91 | *c1ccc(Oc2ccc(C(=O)c3ccc(Oc4ccc(C(*)(c5ccccc5)C(F)(F)F)cc4)cc3)cc2)cc1 (repeat unit)
 | 5.4 |  | 0.22 | 1.5 | *Oc1ccc(S(=O)(=O)c2ccc(Oc3ccc(C(C)(C)c4ccc(*)c(C(O)(C(F)(F)F)C(F)(F)F)c4)cc3C(O)(C(F)(F)F)C(F)(F)F)cc2)cc1 (repeat unit)
0.28 | 8.92 |  | 0.34 | 1.77 | *c1ccc(Sc2ccc(Sc3ccc(N4C(=O)c5ccc(C(c6ccc7c(c6)C(=O)N(*)C7=O)(C(F)(F)F)C(F)(F)F)cc5C4=O)cc3)cc2)cc1 (repeat unit)
0.79 | 39.6 |  | 1.2 | 7.62 | *c1ccc(-c2ccc(Oc3ccc(C4(c5ccc(Oc6ccc(-c7ccc(-n8c(=O)c9cc%10c(=O)n(*)c(=O)c%10cc9c8=O)cc7)cc6C(F)(F)F)cc5)c5ccccc5C(=O)N4c4ccccc4)cc3)c(C(F)(F)F)c2)cc1 (repeat unit)
